# Laboratory results from publication PMC3626541, “A first in human, safety, pharmacokinetics, and clinical activity phase I study of once weekly administration of the Hsp90 inhibitor ganetespib (STA-9090) in patients with solid malignancies” (BMC Cancer, 2013).
# System: patients with advanced solid tumors
# Assay: Safety: adverse events (NCI CTCAE v3.0), ECG
# Type: in vivo, human
# Procedure: Patients’ demographics and medical history were recorded at baseline. Physical examination and PS were assessed at baseline and on Day 1 of each cycle. Adverse events (AEs), vital signs, hematology and chemistry values, and creatinine clearance were assessed at baseline and weekly during treatment. Toxicity was graded using National Cancer Institute Common Terminology Criteria for Adverse Events (NCI CTCAE), version 3.0. An electrocardiogram (ECG) was performed at baseline, before and after treatment on Days 1 and 15 of Cycles 1 and 2, and on Day 15 of even-numbered cycles thereafter. CT scans were done at baseline and every 8 weeks thereafter. Tumor response was assessed using Response Evaluation Criteria in Solid Tumors (RECIST, v1.0), with confirmation of responses performed at least 4 weeks later.
smiles,measurement,setting,value
"CC(C)c1cc(-c2n[nH]c(=O)n2-c2ccc3c(ccn3C)c2)c(O)cc1O [Ganetespib, 5-[2,4-dihydroxy-5-(1 methyl-ethyl)phenyl]-2,4 dihydro-4-(1-methyl-1H indol-5 yl)-3H-1,2,4 triazole-3-one]","Any event, AE of any grade, Number (%) of patients","7-114 mg/m^2, n = 25",25 (100) n (%)
same,"Any event, CTCAE Grade 3 and 4 AE, Number (%) of patients","7-114 mg/m^2, n = 25",17 (68) n (%)
same,"Any event, serious adverse events, Number (%) of patients","7-114 mg/m^2, n = 25",6 (24) n (%)
same,"Arthralgia, CTCAE Grade 3 and 4 AE, Number (%) of patients","7-114 mg/m^2, n = 25",1 (4) n (%)
same,"Asthenia, AE of any grade, Number (%) of patients","7-114 mg/m^2, n = 25",2 (8) n (%)
same,"Asthenia, CTCAE Grade 3 and 4 AE, Number (%) of patients","7-114 mg/m^2, n = 25",1 (4) n (%)
same,"Asthenia, serious adverse events, Number (%) of patients","7-114 mg/m^2, n = 25",0 n (%)
same,"Back pain, AE of any grade, Number (%) of patients","7-114 mg/m^2, n = 25",4 (16) n (%)
same,"Constipation, AE of any grade, Number (%) of patients","7-114 mg/m^2, n = 25",5 (20) n (%)
same,"Decreased appetite, AE of any grade, Number (%) of patients","7-114 mg/m^2, n = 25",2 (8) n (%)
same,"Dehydration, AE of any grade, Number (%) of patients","7-114 mg/m^2, n = 25",1 (4) n (%)
same,"Dehydration, CTCAE Grade 3 and 4 AE, Number (%) of patients","7-114 mg/m^2, n = 25",1 (4) n (%)
same,"Dehydration, serious adverse events, Number (%) of patients","7-114 mg/m^2, n = 25",0 n (%)
same,"Diarrhea, CTCAE Grade 3 and 4 AE, Number (%) of patients","7-114 mg/m^2, n = 25",1 (4) n (%)
same,"Dizziness, AE of any grade, Number (%) of patients","7-114 mg/m^2, n = 25",1 (4) n (%)
same,"Dry mouth, AE of any grade, Number (%) of patients","7-114 mg/m^2, n = 25",2 (8) n (%)
same,"Dyspnea, AE of any grade, Number (%) of patients","7-114 mg/m^2, n = 25",4 (16) n (%)
same,"Extremity pain, AE of any grade, Number (%) of patients","7-114 mg/m^2, n = 25",4 (16) n (%)
same,"Fatigue, AE of any grade, Number (%) of patients","7-114 mg/m^2, n = 25",12 (48) n (%)
same,"Fatigue, CTCAE Grade 3 and 4 AE, Number (%) of patients","7-114 mg/m^2, n = 25",1 (4) n (%)
same,"Headache, AE of any grade, Number (%) of patients","7-114 mg/m^2, n = 25",2 (8) n (%)
same,"Hyperbilirubinemia, CTCAE Grade 3 and 4 AE, Number (%) of patients","7-114 mg/m^2, n = 25",1 (4) n (%)
same,"Hypokalemia, AE of any grade, Number (%) of patients","7-114 mg/m^2, n = 25",2 (8) n (%)
same,"Hypokalemia, CTCAE Grade 3 and 4 AE, Number (%) of patients","7-114 mg/m^2, n = 25",0 n (%)
same,"Hyponatremia, CTCAE Grade 3 and 4 AE, Number (%) of patients","7-114 mg/m^2, n = 25",3 (12) n (%)
same,"Hypophosphatemia, AE of any grade, Number (%) of patients","7-114 mg/m^2, n = 25",5 (20) n (%)
same,"Hypophosphatemia, CTCAE Grade 3 and 4 AE, Number (%) of patients","7-114 mg/m^2, n = 25",2 (8) n (%)
same,"Insomnia, AE of any grade, Number (%) of patients","7-114 mg/m^2, n = 25",2 (8) n (%)
same,"Musculoskeletal chest pain, AE of any grade, Number (%) of patients","7-114 mg/m^2, n = 25",2 (8) n (%)
same,"Nausea, AE of any grade, Number (%) of patients","7-114 mg/m^2, n = 25",7 (28) n (%)
same,"Peripheral edema, AE of any grade, Number (%) of patients","7-114 mg/m^2, n = 25",3 (12) n (%)
same,"Pneumonia, serious adverse events, Number (%) of patients","7-114 mg/m^2, n = 25",0 n (%)
same,"Rash, AE of any grade, Number (%) of patients","7-114 mg/m^2, n = 25",4 (16) n (%)
same,"Serum amylase elevated, CTCAE Grade 3 and 4 AE, Number (%) of patients","7-114 mg/m^2, n = 25",1 (4) n (%)
same,"Spinal cord compression, CTCAE Grade 3 and 4 AE, Number (%) of patients","7-114 mg/m^2, n = 25",2 (8) n (%)
same,"Urinary tract infection, AE of any grade, Number (%) of patients","7-114 mg/m^2, n = 25",2 (8) n (%)
same,"Vomiting, AE of any grade, Number (%) of patients","7-114 mg/m^2, n = 25",4 (16) n (%)
same,"Weight decreased, AE of any grade, Number (%) of patients","7-114 mg/m^2, n = 25",1 (4) n (%)
same,"ALT elevated, AE of any grade, Number (%) of patients","7-114 mg/m^2, n = 25, first of two ALT elevated lines",5 (20) n (%)
same,"ALT elevated, AE of any grade, Number (%) of patients","7-114 mg/m^2, n = 25, second of two ALT elevated lines",3 (12) n (%)
same,Incidence of diarrhea,7–114 mg/m^2 dose levels,80%
same,Incidence of fatigue,7–114 mg/m^2 dose levels,48%
same,"ALT elevation, CTCAE Grade 3 and 4 AE, Number (%) of patients","150-216 mg/m^2, n = 22",1 (4.5) n (%)
same,"AST elevated, AE of any grade, Number (%) of patients","150-216 mg/m^2, n = 22",4 (18.2) n (%)
same,"Abdominal distension, AE of any grade, Number (%) of patients","150-216 mg/m^2, n = 22",3 (13.6) n (%)
same,"Abdominal pain, AE of any grade, Number (%) of patients","150-216 mg/m^2, n = 22",10 (45.5) n (%)
same,"Abdominal pain, serious adverse events, Number (%) of patients","150-216 mg/m^2, n = 22",1 (4.5) n (%)
same,"Anemia, AE of any grade, Number (%) of patients","150-216 mg/m^2, n = 22",5 (22.7) n (%)
same,"Any event, AE of any grade, Number (%) of patients","150-216 mg/m^2, n = 22",22 (100) n (%)
same,"Any event, CTCAE Grade 3 and 4 AE, Number (%) of patients","150-216 mg/m^2, n = 22",14 (63.6) n (%)
same,"Any event, serious adverse events, Number (%) of patients","150-216 mg/m^2, n = 22",6 (27.3) n (%)
same,"Arthralgia, CTCAE Grade 3 and 4 AE, Number (%) of patients","150-216 mg/m^2, n = 22",0 n (%)
same,"Asthenia, AE of any grade, Number (%) of patients","150-216 mg/m^2, n = 22",4 (18.2) n (%)
same,"Asthenia, CTCAE Grade 3 and 4 AE, Number (%) of patients","150-216 mg/m^2, n = 22",1 (4.5) n (%)
same,"Asthenia, serious adverse events, Number (%) of patients","150-216 mg/m^2, n = 22",1 (4.5) n (%)
same,"Back pain, AE of any grade, Number (%) of patients","150-216 mg/m^2, n = 22",2 (9.1) n (%)
